# Laboratory results taken from ChEMBL document CHEMBL1151088 (1996).
# Experiments:
# Assay type in all cases: functional
# [1] = test system: Staphylococcus aureus; test: In vitro antimicrobial activity against penicillin resistant Staphylococcus aureus 853.
# [2] = test system: Staphylococcus epidermidis; test: In vitro antimicrobial activity against Staphylococcus epidermidis.
# [3] = test system: Staphylococcus aureus; test: In vitro antimicrobial activity against methicillin resistant Staphylococcus aureus 1131.
# [4] = test system: Staphylococcus aureus; test: In vitro antimicrobial activity against penicillin sensitive Staphylococcus aureus 663.
# [5] = test system: Escherichia coli; test: In vitro antimicrobial activity against Escherichia coli 182+PMBN.
# [6] = test system: Candida albicans; test: In vitro antimicrobial activity against Candida albicans.
# [7] = test system: Acholeplasma laidlawii; test: In vitro antimicrobial activity against Acholeplasma laidlawii.
# [8] = test system: Bacillus cereus; test: In vitro antimicrobial activity against Bacillus cereus.
# [9] = test system: Saccharomyces cerevisiae; test: In vitro antimicrobial activity against Saccharomyces cerevisiae.
SMILES,MIC [1] [µg/mL],MIC [2] [µg/mL],MIC [3] [µg/mL],MIC [4] [µg/mL],MIC [5] [µg/mL],MIC [6] [µg/mL],MIC [7] [µg/mL],MIC [8] [µg/mL],MIC [9] [µg/mL]
CCCOc1c2cccc1Cc1cc3cc(c1OCCC)Cc1cccc(c1OCCC)Cc1cc(cc(c1OCCC)C2)C(=O)N[C@@H](C)C(=O)NCCN(C(=O)OC(C)(C)C)CCNC(=O)[C@H](C)NC3=O,> 64,32,64,64,,,,,
CCCOc1c2cccc1Cc1cc3cc(c1OCCC)Cc1cccc(c1OCCC)Cc1cc(cc(c1OCCC)C2)C(=O)N[C@H](C)C(=O)NCCNCCNC(=O)[C@@H](C)NC3=O,8,8,4,8,,,,,
CCCOc1c2cccc1Cc1cc3cc(c1OCCC)Cc1cccc(c1OCCC)Cc1cc(cc(c1OCCC)C2)C(=O)N[C@@H](C)C(=O)NCCNCCNC(=O)[C@H](C)NC3=O,16,4,4,8,32,> 128,> 128,16,> 128
CCCOc1c2cccc1Cc1cc3cc(c1OCCC)Cc1cccc(c1OCCC)Cc1cc(cc(c1OCCC)C2)C(=O)N[C@@H](C)C(=O)N[C@@H](C)C(=O)NCCNCCNC(=O)[C@H](C)NC(=O)[C@@H](C)NC3=O [VANCOMYCIN MIMIC],32,32,32,32,,,,,
CN[C@H](CC(C)C)C(=O)N[C@H]1C(=O)N[C@@H](CC(N)=O)C(=O)N[C@H]2C(=O)N[C@H]3C(=O)N[C@H](C(=O)N[C@H](C(=O)O)c4cc(O)cc(O)c4-c4cc3ccc4O)[C@H](O)c3ccc(c(Cl)c3)Oc3cc2cc(c3O[C@@H]2O[C@H](CO)[C@@H](O)[C@H](O)[C@H]2O[C@H]2C[C@](C)(N)[C@H](O)[C@H](C)O2)Oc2ccc(cc2Cl)[C@H]1O [VANCOMYCIN],,,,,,> 128,> 128,2,> 128
